Measurements published in ChEMBL document CHEMBL4834431, “Design of Dimeric Bile Acid Derivatives as Potent and Selective Human NTCP Inhibitors” (J Med Chem, 2021).
Activity calls are given as the source filed them. No cut-off for these calls is given here.

How the values were obtained:
Hepatitis B virus [1] = test: Antiviral activity against HBV infected in human HepG2-NTCP cells assessed as reduction in HBeAg secretion at 1 to 10 uM incubated for 24 hrs followed by replacement with fresh medium and measured at day 5 post infection by ELISA; assay type: functional, organism-based; conditions: dose 1-10 µM
[2] = biological target: T1, Hepatic sodium/bile acid cotransporter (Homo sapiens, UniProt Q14973); test: Inhibition of human NTCP-mediated [3H]-TCA uptake expressed in human HepG2 cells at 3.3 uM incubated for 10 mins by liquid scintillation counter analysis; assay type: cell-based; conditions: hepg2, 10 min
T1 sequence (Q14973 whole entry): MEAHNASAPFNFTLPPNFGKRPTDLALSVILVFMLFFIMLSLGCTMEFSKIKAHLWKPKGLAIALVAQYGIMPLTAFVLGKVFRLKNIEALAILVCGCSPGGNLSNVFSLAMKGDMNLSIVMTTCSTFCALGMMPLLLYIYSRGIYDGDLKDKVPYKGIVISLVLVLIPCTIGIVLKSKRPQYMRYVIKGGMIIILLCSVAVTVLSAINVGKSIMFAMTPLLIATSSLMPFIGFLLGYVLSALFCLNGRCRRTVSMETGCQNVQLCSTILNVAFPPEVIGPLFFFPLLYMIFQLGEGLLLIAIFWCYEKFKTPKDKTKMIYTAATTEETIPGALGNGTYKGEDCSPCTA

Hepatitis B virus [3] = test: Antiviral activity against HBV infected in human HepG2-NTCP cells assessed as reduction in HBeAg secretion incubated for 24 hrs followed replacement with fresh medium and measured at day 5 post infection by ELISA; assay type: functional, organism-based
[4] = biological target: T1, Hepatic sodium/bile acid cotransporter; test: Inhibition of human NTCP-mediated [3H]-TCA uptake expressed in human HepG2 cells in presence of 20 % FBS; assay type: cell-based
[5] = biological target: T1, Hepatic sodium/bile acid cotransporter; test: Inhibition of human NTCP-mediated [3H]-TCA uptake expressed in human HepG2 cells in presence of 50 % FBS; assay type: cell-based
[6] = biological target: T1, Hepatic sodium/bile acid cotransporter; test: Inhibition of human NTCP-mediated [3H]-TCA uptake expressed in human HepG2 cells pretreated for 2 hrs followed by [3H]-TCA addition in absence of FBS; assay type: cell-based
Hepatitis B virus [7] = test: Antiviral activity against HBV infected in human HepG2-NTCP cells assessed as reduction in HBeAg secretion at 111 to 1000 nM incubated for 24 hrs followed by replacement with fresh medium and measured at day 5 post infection by ELISA; assay type: functional, organism-based; conditions: dose 111-1000 nM
Hepatitis B virus [8] = test: Antiviral activity against HBV infected in human HepG2-NTCP cells assessed as reduction in intracellular HBV RNA level at 1 uM by qPCR analysis; assay type: functional, organism-based
Hepatitis B virus [9] = test: Antiviral activity against HBV infected in human HepG2-NTCP cells assessed as reduction in intracellular accumulation of HBcAg at 1 uM by immunostaining based fluorescence microscopic analysis; assay type: functional, organism-based
Hepatitis B virus [10] = test: Antiviral activity against HBV infected in human HepG2-NTCP cells assessed as reduction in intracellular accumulation of HBsAg at 1 uM by immunostaining based fluorescence microscopic analysis; assay type: functional, organism-based
Hepatitis delta virus = test: Antiviral activity against HDV infected in human HepG2-NTCP cells assessed as reduction in intranuclear accumulation of HDV delta antigen at 5 uM incubated for 24 hrs followed by replacement with fresh medium and measured at day 5 post infection by DAPI staining based confocal microscopic analysis (reference value: 12.1 %); assay type: functional; design: scale not given: the % may be the effect or the level left
Hepatitis B virus [11] = test: Antiviral activity against HBV infected in human HepG2-NTCP cells assessed as reduction in HBeAg secretion at 1 uM preincubated with compound followed by viral infection by ELISA; assay type: functional, organism-based
Hepatitis B virus [12] = test: Antiviral activity against HBV infected in human HepG2-NTCP cells assessed as reduction in HBeAg secretion at 1 uM compound added along with viral infection by ELISA; assay type: functional, organism-based
Hepatitis B virus [13] = test: Antiviral activity against HBV infected in human HepG2-NTCP cells assessed as reduction in HBeAg secretion at 1 uM pre-infected with virus followed by compound addition by ELISA; assay type: functional, organism-based
[14] = biological target: T1, Hepatic sodium/bile acid cotransporter; test: Inhibition of FITC-labeled HBV Pre-S1 polypeptide binding to human NTCP expressed in HepG2 cells after 2 to 3 hrs by confocal microscopic analysis; assay type: cell-based; conditions: time 2-3 hrs
HepG2 [15] = test: Cytotoxicity against human HepG2 cells expressing NTCP assessed as reduction in cell viability at 10 uM after 48 hrs by alamar blue assay; assay type: cell-based; conditions: hepg2, 48 h
Hepatocyte = test: Cytotoxicity against primary tupaia hepatocytes expressing NTCP assessed as reduction in cell viability at 100 uM after 48 hrs by Cell-Titer Glo assay; assay type: cell-based; conditions: scandentia
HepG2 [16] = test: Effect on NTCP surface expression in human HepG2-NTCP cells assessed as reduction in NTCP surface expression level after 2 hrs by immunostaining based assay; assay type: functional, cell-based
[17] = biological target: T1, Hepatic sodium/bile acid cotransporter; test: Inhibition of human NTCP-mediated [3H]-TCA uptake expressed in human HepG2 cells at 2 uM; assay type: cell-based; conditions: hepg2, 2 µM
[18] = biological target: T2, Ileal sodium/bile acid cotransporter (Homo sapiens, UniProt Q12908); test: Inhibition of human ASBT-mediated [3H]-TCA uptake expressed in human HepG2 cells at 2 uM; assay type: cell-based; conditions: hepg2, 2 µM
T2 sequence (Q12908 whole entry): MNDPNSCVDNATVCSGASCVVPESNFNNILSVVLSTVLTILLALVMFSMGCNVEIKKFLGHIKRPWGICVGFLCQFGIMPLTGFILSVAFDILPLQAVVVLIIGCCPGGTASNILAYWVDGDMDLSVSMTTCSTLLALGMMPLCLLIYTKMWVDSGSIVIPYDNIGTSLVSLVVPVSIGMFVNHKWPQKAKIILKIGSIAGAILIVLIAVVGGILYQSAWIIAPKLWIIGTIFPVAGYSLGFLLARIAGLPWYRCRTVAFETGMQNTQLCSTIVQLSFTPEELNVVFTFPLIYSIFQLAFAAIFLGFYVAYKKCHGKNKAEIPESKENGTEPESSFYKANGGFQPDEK

[19] = biological target: T1, Hepatic sodium/bile acid cotransporter; test: Inhibition of human NTCP-mediated [3H]-Estrone sulfate uptake expressed in human HepG2 cells at 2 uM; assay type: cell-based; conditions: hepg2, 2 µM
[20] = biological target: T3, Solute carrier organic anion transporter family member 1B1 (Homo sapiens, UniProt Q9Y6L6); test: Inhibition of human OATP1B1-mediated [3H]-Estrone sulfate uptake expressed in human HepG2 cells at 2 uM; assay type: cell-based; conditions: hepg2, 2 µM
T3 sequence (Q9Y6L6 whole entry): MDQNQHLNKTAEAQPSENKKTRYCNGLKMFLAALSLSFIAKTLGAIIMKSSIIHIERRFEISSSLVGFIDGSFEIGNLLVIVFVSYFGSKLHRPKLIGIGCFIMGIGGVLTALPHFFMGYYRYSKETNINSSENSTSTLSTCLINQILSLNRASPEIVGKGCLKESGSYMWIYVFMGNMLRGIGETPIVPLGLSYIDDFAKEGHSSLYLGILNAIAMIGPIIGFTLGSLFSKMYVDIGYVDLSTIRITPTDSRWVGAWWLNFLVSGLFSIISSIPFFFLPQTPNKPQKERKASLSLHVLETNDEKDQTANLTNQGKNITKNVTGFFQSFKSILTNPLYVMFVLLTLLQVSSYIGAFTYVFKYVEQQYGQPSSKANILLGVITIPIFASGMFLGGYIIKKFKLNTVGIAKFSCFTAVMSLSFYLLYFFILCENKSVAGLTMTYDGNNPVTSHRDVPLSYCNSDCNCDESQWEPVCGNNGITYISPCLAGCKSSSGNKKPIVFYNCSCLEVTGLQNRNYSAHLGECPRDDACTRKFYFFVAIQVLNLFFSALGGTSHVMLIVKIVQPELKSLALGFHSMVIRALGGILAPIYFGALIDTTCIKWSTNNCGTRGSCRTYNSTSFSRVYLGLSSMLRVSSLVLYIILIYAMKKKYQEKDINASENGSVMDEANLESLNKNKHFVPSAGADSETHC

[21] = biological target: T1, Hepatic sodium/bile acid cotransporter; test: Inhibition of human NTCP-mediated NQL-064 uptake expressed in human HepG2 cells incubated for 30 mins; assay type: cell-based; conditions: hepg2, 0.5 h
[22] = biological target: T1, Hepatic sodium/bile acid cotransporter; test: Inhibition of human NTCP-mediated NQL-065 uptake expressed in human HepG2 cells incubated for 30 mins; assay type: cell-based; conditions: hepg2, 0.5 h
Hepatitis B virus [23] = test: Antiviral activity against HBV infected in human HepG2-NTCP cells assessed as reduction in HBeAg secretion preincubated for 2 hrs followed by viral infection by ELISA; assay type: functional, organism-based
[24] = biological target: T1, Hepatic sodium/bile acid cotransporter; test: Inhibition of human NTCP-mediated [3H]-TCA uptake expressed in human HepG2 cells; assay type: cell-based; conditions: human, hepg2
HepG2 [25] = test: Inhibition of monkey NTCP-mediated [3H]-TCA uptake expressed in human HepG2 cells; assay type: cell-based; conditions: Macaca mulatta
[26] = biological target: T4, Hepatic sodium/bile acid cotransporter (Mus musculus, UniProt O08705); test: Inhibition of mouse NTCP-mediated [3H]-TCA uptake expressed in human HepG2 cells; assay type: cell-based
T4 sequence (O08705 whole entry): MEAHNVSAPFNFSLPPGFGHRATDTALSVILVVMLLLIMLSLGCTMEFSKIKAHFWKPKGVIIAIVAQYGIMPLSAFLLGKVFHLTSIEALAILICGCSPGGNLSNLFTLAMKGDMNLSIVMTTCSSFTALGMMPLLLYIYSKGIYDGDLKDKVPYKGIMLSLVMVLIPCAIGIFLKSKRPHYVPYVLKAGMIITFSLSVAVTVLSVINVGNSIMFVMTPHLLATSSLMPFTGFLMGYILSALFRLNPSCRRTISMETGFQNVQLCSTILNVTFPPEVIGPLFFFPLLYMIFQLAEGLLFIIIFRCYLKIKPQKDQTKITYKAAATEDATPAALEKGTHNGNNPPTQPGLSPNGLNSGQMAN

HepG2 [27] = test: Inhibition of tree shrew NTCP-mediated [3H]-TCA uptake expressed in human HepG2 cells; assay type: cell-based; conditions: Scandentia

## CC(=O)O[C@@H]1CC[C@@]2(C)[C@@H](C1)C[C@H](O)[C@@H]1[C@@H]2CC[C@]2(C)[C@@H]([C@H](C)CCC(=O)NCCS(=O)(=O)O)CC[C@@H]12
Hepatitis B virus [1]
  Activity: inactive
[2]
  inhibition (INH): Not Active

## C[C@@H]1CCC(=O)NC(C(=O)O)CNC(=O)CC[C@@H](C)[C@H]2CC[C@H]3[C@@H]4[C@@H](O)C[C@@H]5C[C@@H](CC[C@]5(C)[C@H]4CC[C@]23C)n2cc(nn2)CO[C@@H]2CC[C@@]3(C)[C@@H](C2)C[C@H](O)[C@@H]2[C@@H]3CC[C@]3(C)[C@@H]1CC[C@@H]23 (stereo not given in full)
Hepatitis B virus [3]
  IC50: 93 nM
[4]
  IC50: 109 nM
[5]
  IC50: 167 nM
[6]
  IC50: 17.9 nM

## C[C@H](CCCN(CC[C@@H](C)[C@H]1CC[C@H]2[C@@H]3[C@@H](O)C[C@@H]4C[C@H](O)CC[C@]4(C)[C@H]3CC[C@]12C)CCS(=O)(=O)O)[C@H]1CC[C@H]2[C@@H]3[C@@H](O)C[C@@H]4C[C@H](O)CC[C@]4(C)[C@H]3CC[C@]12C
Hepatitis B virus [3]
  IC50: 110 nM
Hepatitis B virus [7]
  Activity: Active
Hepatitis B virus [8]
  Activity: Active
Hepatitis B virus [9]
  Activity: Active
Hepatitis B virus [10]
  Activity: Active
Hepatitis delta virus
  Activity: 4.6%
Hepatitis B virus [11]
  Activity: Active
Hepatitis B virus [12]
  Activity: Active
Hepatitis B virus [13]
  Activity: inactive
[14]
  inhibition (INH): Active
HepG2 [15]
  Activity: Non-Toxic
Hepatocyte
  Activity: Non-Toxic
HepG2 [16]
  Activity: inactive
[17]
  inhibition (INH): Active
[18]
  inhibition (INH): Not Active
[19]
  inhibition (INH): Active
[20]
  inhibition (INH): Not Active
[21]
  inhibition (INH): Active
[22]
  inhibition (INH): Active
Hepatitis B virus [23]
  Activity: Active
[24]
  inhibition (INH): Active
HepG2 [25]
  inhibition: Active
[26]
  inhibition (INH): Active
HepG2 [27]
  inhibition: Active
